{
  "source": "patent US20180117052A1",
  "about": "“COMBINATION THERAPIES FOR TREATING CANCERS” (Gilead Scienes, Inc., priority 2015, published 2018)",
  "test_system": "CD5+/CD19+ cells of PBMCs from primary chronic lymphocytic leukemia (CLL) patients",
  "assay": "Human CLL apoptosis assay (AnnexinV+ cells by flow cytometry)",
  "assay_type": "cell-based",
  "settings": "no HS-5 co-culture",
  "procedure": "Peripheral blood mononuclear cells (PBMCs) were isolated from primary chronic lymphocytic leukemia (CLL) patients and cultured for 3-5 hours in Lymphocyte Growth Medium (LGM, RPMI 1640, 1 mM Sodium Pyruvate, 10 mM HEPES, pH 7.4, 100 U/mL Penicillin/100 μg/mL Streptomycin, 55 μM β-Mercaptoethanl, 2 mM GlutaMAX, and 10% FBS) at 37° C. with 5% CO2. Cells were then centrifuged at room temperature for 10 minutes and resuspended in an appropriate volume of LGM for plating (maximum cell density=3.12×10^6/ml). Final assay wells were set up in U-bottom 96-well tissue culture plates with HS-5 co-culture (plates were coated with 3×10^4 HS-5 cells in 100 μl overnight at 37° C. prior to the assay) or no co-culture.\nCell suspensions (80 μL, 2.5×10^5-9.4×10^4) were added to the plate and incubated for 1 hour prior to stimulation with αIgM/αIgG (7.8 μg/well) and αCD40 (4 μg/well). Cells were incubated with compounds for about 66 hours at 37° C. After incubation, the cells were transferred to deeper plates and washed once with 500 μL of 1× PBS^+/+. Cells were resuspended in Invitrogen's aqua Live/Dead reagent according to manufacturer's directions and incubated 30 minutes on ice. Aqua Live/Dead was quenched with an equal volume of PBS^+/+ with 4% FBS (FACS buffer). Cells were centrifuged and labeled with αCD5-PE, αCD19-BV421 and AnnexinV-APC in a total volume of 85 μL and incubated 30 minutes on ice. After labeling, cells were rinsed twice in FACS buffer and then fixed with BD Fixation buffer for 30 minutes on ice. Cells were rinsed twice with FACS buffer and analyzed.\nFor the apoptosis analysis, flow cytometric sampling of 5000-20,000 total events were collected on a BD FACS Canto II instrument using a high throughput screen (HTS) autosampler for analysis of apoptosis. CD5^+/CD19^+ cells were identified and subsequently gated for AnnexinV^+/LiveDead and AnnexinV^+/LiveDead^+ populations.\nFlow cytometric data were extracted to a flow cytometry standard (fcs) file. Average percentages of AnnexinV^+ cells were determined for the positive control and negative wells (no compound). The percentage of AnnexinV^+ cells represented the percentage or levels of apoptosis. Similar results were obtained for CLL cells with HS-5 co-culture.",
  "data": [
    {"molecule": "CC1(C)CCC(CN2CCN(c3ccc(C(=O)NS(=O)(=O)c4ccc(NCC5CCOCC5)c([N+](=O)[O-])c4)c(Oc4cnc5[nH]ccc5c4)c3)CC2)=C(c2ccc(Cl)cc2)C1", "note": "[Compound B1, (4-(4-{[2-(4-chlorophenyl)-4,4-dimethylcyclohex-1-en-1-yl]methyl}piperazin-1-yl)-N-({3-nitro-4-[(tetrahydro-2H-pyran-4-yl-methyl)amino]phenyl}sulfonyl)-2-(1H-pyrrolo[2,3-b]pyridin-5-yl-oxy)benzamide)]", "values": [
      {"measurement": "Percentage of the AnnexinV^+ cells", "setting": "Sample 1, 0 nM Compound A1, 0.8 nM Compound B1", "value": 13, "unit": "%"},
      {"measurement": "Percentage of the AnnexinV^+ cells", "setting": "Sample 1, 0 nM Compound A1, 1.6 nM Compound B1", "value": 15, "unit": "%"},
      {"measurement": "Percentage of the AnnexinV^+ cells", "setting": "Sample 1, 0 nM Compound A1, 3.1 nM Compound B1", "value": 15, "unit": "%"},
      {"measurement": "Percentage of the AnnexinV^+ cells", "setting": "Sample 1, 0 nM Compound A1, 6.3 nM Compound B1", "value": 16, "unit": "%"},
      {"measurement": "Percentage of the AnnexinV^+ cells", "setting": "Sample 1, 0 nM Compound A1, 12.5 nM Compound B1", "value": 19, "unit": "%"},
      {"measurement": "Percentage of the AnnexinV^+ cells", "setting": "Sample 1, 0 nM Compound A1, 25 nM Compound B1", "value": 24, "unit": "%"},
      {"measurement": "Percentage of the AnnexinV^+ cells", "setting": "Sample 1, 0 nM Compound A1, 50 nM Compound B1", "value": 31, "unit": "%"},
      {"measurement": "Percentage of the AnnexinV^+ cells", "setting": "Sample 1, 0 nM Compound A1, 100 nM Compound B1", "value": 36, "unit": "%"},
      {"measurement": "Percentage of the AnnexinV^+ cells", "setting": "Sample 1, 0 nM Compound A1, 200 nM Compound B1", "value": 46, "unit": "%"},
      {"measurement": "Percentage of the AnnexinV^+ cells", "setting": "Sample 2, 0 nM Compound A1, 0.8 nM Compound B1", "value": 10, "unit": "%"},
      {"measurement": "Percentage of the AnnexinV^+ cells", "setting": "Sample 2, 0 nM Compound A1, 1.6 nM Compound B1", "value": 18, "unit": "%"},
      {"measurement": "Percentage of the AnnexinV^+ cells", "setting": "Sample 2, 0 nM Compound A1, 3.1 nM Compound B1", "value": 35, "unit": "%"},
      {"measurement": "Percentage of the AnnexinV^+ cells", "setting": "Sample 2, 0 nM Compound A1, 6.3 nM Compound B1", "value": 55, "unit": "%"},
      {"measurement": "Percentage of the AnnexinV^+ cells", "setting": "Sample 2, 0 nM Compound A1, 12.5 nM Compound B1", "value": 76, "unit": "%"},
      {"measurement": "Percentage of the AnnexinV^+ cells", "setting": "Sample 2, 0 nM Compound A1, 25 nM Compound B1", "value": 89, "unit": "%"},
      {"measurement": "Percentage of the AnnexinV^+ cells", "setting": "Sample 2, 0 nM Compound A1, 50 nM Compound B1", "value": 93, "unit": "%"},
      {"measurement": "Percentage of the AnnexinV^+ cells", "setting": "Sample 2, 0 nM Compound A1, 100 nM Compound B1", "value": 95, "unit": "%"},
      {"measurement": "Percentage of the AnnexinV^+ cells", "setting": "Sample 2, 0 nM Compound A1, 200 nM Compound B1", "value": 97, "unit": "%"},
      {"measurement": "Percentage of the AnnexinV^+ cells", "setting": "Sample 3, 0 nM Compound A1, 0.8 nM Compound B1", "value": 16, "unit": "%"},
      {"measurement": "Percentage of the AnnexinV^+ cells", "setting": "Sample 3, 0 nM Compound A1, 1.6 nM Compound B1", "value": 21, "unit": "%"},
      {"measurement": "Percentage of the AnnexinV^+ cells", "setting": "Sample 3, 0 nM Compound A1, 3.1 nM Compound B1", "value": 33, "unit": "%"},
      {"measurement": "Percentage of the AnnexinV^+ cells", "setting": "Sample 3, 0 nM Compound A1, 6.3 nM Compound B1", "value": 50, "unit": "%"},
      {"measurement": "Percentage of the AnnexinV^+ cells", "setting": "Sample 3, 0 nM Compound A1, 12.5 nM Compound B1", "value": 69, "unit": "%"},
      {"measurement": "Percentage of the AnnexinV^+ cells", "setting": "Sample 3, 0 nM Compound A1, 25 nM Compound B1", "value": 89, "unit": "%"},
      {"measurement": "Percentage of the AnnexinV^+ cells", "setting": "Sample 3, 0 nM Compound A1, 50 nM Compound B1", "value": 97, "unit": "%"},
      {"measurement": "Percentage of the AnnexinV^+ cells", "setting": "Sample 3, 0 nM Compound A1, 100 nM Compound B1", "value": 99, "unit": "%"},
      {"measurement": "Percentage of the AnnexinV^+ cells", "setting": "Sample 3, 0 nM Compound A1, 200 nM Compound B1", "value": 100, "unit": "%"}
    ]},
    {"molecule": "c1cn2cc(-c3ccc4cn[nH]c4c3)nc(Nc3ccc(N4CCOCC4)cc3)c2n1", "note": "[Compound A1, 6-(1H-indazol-6-yl)-N-(4-morpholinophenyl)imidazo[1,2-a]pyrazin-8-amine]", "values": [
      {"measurement": "Percentage of the AnnexinV^+ cells", "setting": "Sample 1, 30 nM Compound A1, 0 nM Compound B1", "value": 12, "unit": "%"},
      {"measurement": "Percentage of the AnnexinV^+ cells", "setting": "Sample 1, 100 nM Compound A1, 0 nM Compound B1", "value": 12, "unit": "%"},
      {"measurement": "Percentage of the AnnexinV^+ cells", "setting": "Sample 1, 300 nM Compound A1, 0 nM Compound B1", "value": 16, "unit": "%"},
      {"measurement": "Percentage of the AnnexinV^+ cells", "setting": "Sample 2, 30 nM Compound A1, 0 nM Compound B1", "value": 9, "unit": "%"},
      {"measurement": "Percentage of the AnnexinV^+ cells", "setting": "Sample 2, 100 nM Compound A1, 0 nM Compound B1", "value": 12, "unit": "%"},
      {"measurement": "Percentage of the AnnexinV^+ cells", "setting": "Sample 2, 300 nM Compound A1, 0 nM Compound B1", "value": 20, "unit": "%"},
      {"measurement": "Percentage of the AnnexinV^+ cells", "setting": "Sample 3, 30 nM Compound A1, 0 nM Compound B1", "value": 13, "unit": "%"},
      {"measurement": "Percentage of the AnnexinV^+ cells", "setting": "Sample 3, 100 nM Compound A1, 0 nM Compound B1", "value": 15, "unit": "%"},
      {"measurement": "Percentage of the AnnexinV^+ cells", "setting": "Sample 3, 300 nM Compound A1, 0 nM Compound B1", "value": 18, "unit": "%"}
    ]}
  ]
}
